Measurements: patent US20240092756A1, “METHODS AND COMPOSITION FOR KRAS MODIFICATIONS” (2692372 ONTARIO, INC., priority 2020, published 2024)

What was measured:
[1] = biological target: KRAS G12C Lite (SEQ ID NO:3) (Homo sapiens, UniProt P01116, C118S/C51S/C80S/G12C/S136P/S39C); test: Intact mass analysis (LC-MS) of covalent modification, KRAS G12C Lite; assay type: binding; design: key to KRAS Lite Modification: a: KRAS Lite modified; details: intact mass spectrometry; covalent modification of KRAS G12C Lite
Method: The covalent modification of the proteins with the compounds were evaluated using intact mass analysis by liquid chromatography-mass spectrometry instrument (LC-MS/MS).
The reaction solution (20 μL) was prepared in 96-well plate and contained the protein (2 μM), the compound (100 μM), HEPES buffer (20 mM, pH 8), 2% DMSO, 2% glycerol, and 150 mM NaCl. The reaction was allowed to proceed for 24 h at 25° C. The reaction solution (1 μL) was injected into the LC/MS/MS without any further sample preparation.
The LC-MS/MS instrument comprises of a Waters G2-XS quadrupole-time of flight (QTof) mass spectrometer and a Waters Acuity I-class Ultra-High Performance Liquid Chromatography (UPLC) system. The I-class UPLC system includes a binary solvent manager (BSM), and an Acquity sample manager (SM). The mobile phase consisted of: A) 0.1% (v/v) formic acid in MilliQ water; B) 0.1% (v/v) formic acid acetonitrile. Gradients were run over 5 min and proceeded as follows: A:B, 85:15, 0.0-0.7 min, 85:15→15:85, 0.7-1.5 min, 10:90, 1.5-4 min, 10:90→85:15, 4-4.5 min, 85:15, 4.5-5 min. The analytical column was a Waters BEH C4 column 1.7 μm (50×1 mm) column with pore sizes of 300 Å. The TOF MS data was collected in positive ion mode (m/z of 400-2000 Da) using MassLynx software (Waters).
The spectral deconvolution was performed using UNIFI software (Waters). The added mass of the protein upon covalent modification to cysteine residues were specified. Multiple modification of up to 8 cysteine was allowed. All the adducts with signal intensities of <2% of the base peak were ignored. The % modification was calculated as the adduct signal intensity over the total intensities of the protein peaks and the adducts.

[2] = system: phospho-ERK1/2 in MIA PaCa-2 cells (express KRAS G12C); test: ERK1/2 phosphorylation in MIA PaCa-2 cells; assay type: cell-based, human; design: key: X: KRAS G12C bound and modulated in cells
Method: MIA PaCa-2 cells were cultured in Dulbecco's Modified Eagle's Medium (Wisent) supplemented with 10% FBS, 2.5% horse serum, and 1% penicillin/streptomycin. Cells were seeded in 6-well plates at 500,000 cells/well and incubated at 37° C., 5% CO2 for 16 hours. Cells were treated with the indicated concentrations of compound or DMSO alone and incubated at 37° C., 5% CO2 for 6 or 24 hours. Conditioned media was discarded, and adherent cells were washed with PBS before they were scraped. Cell suspensions were centrifugated at 2,000 RPM for 5 minutes at 4° C. and supernatants were discarded. Cell pellets were resuspended with 1×RIPA buffer (Millipore) and incubated on ice for 15 minutes. Protein lysates were extracted by centrifugating at 20,000 RPM for 20 minutes at 4° C. Proteins were separated and total KRas protein levels were quantified by Simple Western Immunoassay (ProteinSimple) using the 2-40 kDa Separation Module for Jess according to the manufacturer's protocol, using a protein concentration of 0.5 μg/μl and antibodies targeting KRas (clone #4F3, Sigma) and GAPDH (clone #14C10, Cell Signaling) diluted to 1:10 and 1:1600, respectively, where the latter was used as a loading control. A 3:1 ratio of rabbit to mouse HRP-conjugated secondary antibodies was used for detection. KRas protein levels were quantified relative to GAPDH loading levels and subsequently normalized to the DMSO control. Phosphorylated ERK1/2 levels were quantified by Simple Western Immunoassay (ProteinSimple) using the Protein Normalization Assay Module for Jess according to the manufacturer's protocol using a protein concentration of 0.5 μg/μl and an antibody targeting phosphor-ERK1/2 (clone #D13.14.4E, Cell Signalling) diluted to 1:10. Phosphorylated ERK1/2 levels were normalized to the Jess Protein Normalization Reagent loading control and subsequently to the DMSO control.
MIA PaCa-2 cells were cultured in Dulbecco's Modified Eagle's Medium (Wisent) supplemented with 10% FBS, 2.5% horse serum, and 1% penicillin/streptomycin. Cells were seeded in 96-well plates at a density of 25,000 cells/well and incubated at 37° C., 5% CO2 for 24 hours. The next day, cells were starved in cell culture media containing 1% FBS only at 37° C., 5% CO2 for 16 hours. Following starvation, serially-diluted compounds or DMSO alone were added to cells and incubated at 37° C., 5% CO2 for 1 or 3 hours. Prior to cell lysis, 25 ng/ml human epidermal growth factor (hEGF) (Sigma) was added to the cells and incubated at 37° C., 5% CO2 for 10 minutes. Conditioned media was discarded, and adherent cells lysed and basal ERK1/2 phosphorylation levels were measured using the Phospho-ERK (Thr202/Tyr204) Cellular HTRF kit (Perkin Elmer) according to the manufacturer's protocol. The fluorescent signal of the acceptor antibody at a wavelength of 665 nm was normalized to that of the donor antibody at 620 nm. HTRF ratios were plotted and relative IC50 values were obtained using Prism (GraphPad).

KRAS G12C = KRAS G12C (Homo sapiens, UniProt P01116, G12C); test: SOS1-catalyzed KRAS coupled nucleotide exchange assay (Alpha technology); assay type: biochemical; design: His; key: A: KRAS G12C bound and modulated; details: inhibition of SOS1 mediated KRAS nucleotide exchange
Method: Method I: The inhibition of the SOS1-catalyzed nucleotide exchange activity of KRAS (e.g., KRAS G12C/C118A) was measured using Alpha (Amplified Luminescent Proximity Homogeneous Assay) technology. 20 nM GDP-bound human KRAS (G12C/C118A) protein was incubated with two-fold serially-diluted test compound or DMSO for 5 minutes at ambient temperature in reaction buffer (25 mM HEPES, pH 7.4; 10 mM MgCl2; 0.01% Triton X-100). For all subsequent steps, DTT was added to the reaction buffer at a final concentration of 1 mM. Next, GTP and SOS-1 were added in DTT-reaction buffer at final concentrations of 1.25 mM or 500 nM, respectively, and incubated at RT for 30 minutes. Finally, c-RAF RBD (50 nM final), Alpha glutathione donor beads (PerkinElmer; 20 μg/mL final), and AlphaLISAnickel chelate acceptor beads (PerkinElmer; 20 μg/mL final), all diluted in DTT-reaction buffer, were added. The reaction mixture was incubated at RT for 5 min, and then the plates were read on an EnVision® Multilabel Reader using the AlphaScreen protocol. Luminescence signal was measured at 570 nm following a 180 ms excitation at 680 nm. Signal intensity corresponded with the association of c-RAF RBD with GTP-bound KRAS G12C/C118A and was normalized to DMSO control.
Method II: Inhibition of the SOS1-catalyzed nucleotide exchange activity of KRAS^G12C was measured using Alpha technology (PerkinElmer). 50 nM GDP-bound human KRAS^G12C protein was incubated with serially-diluted compound or DMSO for 2 hrs at RT in RBD-RAS binding buffer (BPSBioscience). 1 mM GTP and 500 nM SOS-1 were added to the reaction mixture and incubated at RT for 30 min. GST-tagged RBD-cRAF was then added to the reaction mixture at a final concentration of 2.5 nM and incubated at RT for 30 min. Finally, Alpha Glutathione acceptor beads and Nickel chelate donor beads (PerkinElmer) were diluted to 1:500 and 1:250, respectively, and added to the reaction mixture. The final reaction was incubated at RT for 30 min. Plates were read on a TECAN SPARK® Multiplate Reader. The luminescence signal was measured at 615 nm following excitation at 680 nm. Signal intensity was normalized to DMSO control.

KRAS Lite Modification [1] | KRAS-SOS1 Nucleotide Exchange (KRAS G12C) | SMILES | pERK - MIA PaCa-2 - (6 hours, 5 uM) [2]
a |  | COc1c(F)c(F)c(F)c(F)c1S(=O)(=O)Nc1nc(=O)n(-c2c(C)ccnc2C(C)C)c2nc(-c3c(O)cccc3F)c(F)cc12 (atropisomer, axis not shown) [Compound 9A, 2,3,4,5-tetrafluoro-N-(6-fluoro-7-(2-fluoro-6-hydroxyphenyl)-1-(2-isopropyl-4-methylpyridin-3-yl)-2-oxo-1,2-dihydropyrido[2,3-d]pyrimidin-4-yl)-6-methoxybenzenesulfonamide] | X
 | A | Cc1ccnc(C(C)C)c1-n1c(=O)nc(NS(=O)(=O)c2c(F)c(F)c(F)c(F)c2OCF)c2cc(F)c(-c3c(O)cccc3F)nc21 (atropisomer, axis not shown) [Compound 10A, 2,3,4,5-tetrafluoro-N-(6-fluoro-7-(2-fluoro-6-hydroxyphenyl)-1-(2-isopropyl-4-methylpyridin-3-yl)-2-oxo-1,2-dihydropyrido[2,3-d]pyrimidin-4-yl)-6-(fluoromethoxy)benzenesulfonamide] | X
a |  | C[S+]([O-])c1c(F)c(F)c(F)c(F)c1N1CCN(c2ncnc3c2CCN(c2cccc4cccc(Cl)c24)C3)CC1 (racemic) [Compound 43A, 7-(8-chloronaphthalen-1-yl)-4-(4-(2,3,4,5-tetrafluoro-6-(methylsulfinyl)phenyl)piperazin-1-yl)-5,6,7,8-tetrahydropyrido[3,4-d]pyrimidine] | 
 | A | C[S+]([O-])c1c(F)c(F)c(F)c(F)c1N1CC(Nc2ncnc3cc(-c4ccccc4F)c(Cl)cc23)C1 (racemic) [Compound 48A, 6-chloro-7-(2-fluorophenyl)-N-(1-(2,3,4,5-tetrafluoro-6-(methylsulfinyl)phenyl)azetidin-3-yl)quinazolin-4-amine] | X
a | A | Cc1ccnc(C(C)C)c1-n1c(=O)nc(NS(=O)(=O)c2c(F)c(F)c(F)c(F)c2F)c2cc(F)c(Cl)nc21 [Compound 4A, N-(7-chloro-6-fluoro-1-(2-isopropyl-4-methylpyridin-3-yl)-2-oxo-1,2-dihydropyrido[2,3-d]pyrimidin-4-yl)-2,3,4,5,6-pentafluorobenzenesulfonamide] | X
a |  | COc1c(F)c(F)c(F)c(F)c1S(=O)(=O)Nc1nc(=O)n(-c2c(C)ccnc2C(C)C)c2nc(Cl)c(F)cc12 [Compound 8A, N-(7-chloro-6-fluoro-1-(2-isopropyl-4-methylpyridin-3-yl)-2-oxo-1,2-dihydropyrido[2,3-d]pyrimidin-4-yl)-2,3,4,5-tetrafluoro-6-methoxybenzenesulfonamide] | 
 | A | O=S(=O)(NC1CN(c2ncnc3c2CCN(c2cccc4ccccc24)C3)C1)c1c(F)c(F)c(F)c(F)c1F [Compound 20A, 2,3,4,5,6-pentafluoro-N-(1-(7-(naphthalen-1-yl)-5,6,7,8-tetrahydropyrido[3,4-d]pyrimidin-4-yl)azetidin-3-yl)benzenesulfonamide] | X
a | A | O=S(=O)(c1c(O)c(F)c(F)c(F)c1F)N1CCN(c2ncnc3c2CCN(c2cccc4ccccc24)C3)CC1 [Compound 31A, 2,3,4,5-tetrafluoro-6-((4-(7-(naphthalen-1-yl)-5,6,7,8-tetrahydropyrido[3,4-d]pyrimidin-4-yl)piperazin-1-yl)sulfonyl)phenol] | 
 | A | O=S(=O)(NC1CN(c2ncnc3c2CCN(c2cccc4ccccc24)C3)C1)c1c(F)c(F)c(F)c(F)c1C(F)(F)F [Compound 35A, 2,3,4,5-tetrafluoro-N-(1-(7-(naphthalen-1-yl)-5,6,7,8-tetrahydropyrido[3,4-d]pyrimidin-4-yl)azetidin-3-yl)-6-(trifluoromethyl)benzenesulfonamide] | X
 | A | O=S(=O)(c1c(F)c(F)c(F)c(F)c1C(F)(F)F)N1CCN(c2ncnc3c2CCN(c2cc(O)cc4ccccc24)C3)CC1 [Compound 41A, 4-(4-(4-((2,3,4,5-tetrafluoro-6-(trifluoromethyl)phenyl)sulfonyl)piperazin-1-yl)-5,8-dihydropyrido[3,4-d]pyrimidin-7(6H)-yl)naphthalen-2-ol] | X
 | A | Cc1cccc(C)c1-c1cc2nccc(N3CCN(c4c(F)c(F)c(F)c(F)c4S(C)(=O)=O)C[C@@H]3C)c2cc1Cl [Compound 44A, (S)-6-chloro-7-(2,6-dimethylphenyl)-4-(2-methyl-4-(2,3,4,5-tetrafluoro-6-(methylsulfonyl)phenyl)piperazin-1-yl)quinoline] | X
